# Measurements taken from ChEMBL document CHEMBL5120927, “LEGO-Lipophosphonoxins: A Novel Approach in Designing Membrane Targeting Antimicrobials” (J Med Chem, 2022).
# Key:
# Staphylococcus aureus [1] = test: Antibacterial activity against Staphylococcus aureus ATCC 29213 = CCM 4223 assessed as inhibition of bacterial growth incubated for 24 hrs in presence of BSA by microdilution assay; assay type: functional
# [2] = test system: Staphylococcus epidermidis; test: Antibacterial activity against Staphylococcus epidermidis CCM 7221 assessed as inhibition of bacterial growth incubated for 24 hrs by microdilution assay; assay type: functional
# Staphylococcus aureus [3] = test: Antibacterial activity against methicillin resistant Staphylococcus aureus 4591/A assessed as reduction in microbial growth incubated for 24 hrs by microdilution assay; assay type: functional
# Escherichia coli [4] = test: Antibacterial activity against Escherichia coli ATCC 25922 = CCM 3954 assessed as inhibition of bacterial growth incubated for 24 hrs in presence of BSA by microdilution assay; assay type: functional
# [5] = Gradient chromatographic hydrophobicity index of the compound at pH 3.7 by HPLC analysis; assay type: ADME
# Staphylococcus aureus [6] = test: Antibacterial activity against Staphylococcus aureus ATCC 29213 = CCM 4223 assessed as inhibition of bacterial growth incubated for 24 hrs by microdilution assay; assay type: functional
# Enterococcus faecium = test: Antibacterial activity against vancomycin resistant Enterococcus faecium 419/ANA assessed as reduction in microbial growth incubated for 24 hrs by microdilution assay; assay type: functional
# Enterococcus faecalis = test: Antibacterial activity against Enterococcus faecalis ATCC 29212 = CCM 4224 assessed as inhibition of bacterial growth incubated for 24 hrs by microdilution assay; assay type: functional
# Pseudomonas aeruginosa [7] = test: Antibacterial activity against Pseudomonas aeruginosa ATCC 27853 = CCM 3955 assessed as inhibition of bacterial growth incubated for 24 hrs by microdilution assay; assay type: functional
# Escherichia coli [8] = test: Antibacterial activity against multidrug-resistant Escherichia coli CE5556 expressing CTX-M-15 assessed as reduction in microbial growth incubated for 24 hrs by microdilution assay; assay type: functional
# Escherichia coli [9] = test: Antibacterial activity against Escherichia coli ATCC 25922 = CCM 3954 assessed as inhibition of bacterial growth incubated for 24 hrs by microdilution assay; assay type: functional
# [10] = Hemolytic activity in human RBC assessed as haemoglobin release measured after 3 hr; assay type: toxicity, cell-based, Erythrocyte; settings: red blood cells (erythrocytes)
# Pseudomonas aeruginosa [11] = test: Antibacterial activity against multidrug-resistant Pseudomonas aeruginosa assessed as reduction in microbial growth incubated for 24 hrs by microdilution assay; assay type: functional
Compound,MIC (Staphylococcus aureus [1]) [µg/mL],MIC [2] [µg/mL],MIC (Staphylococcus aureus [3]) [µg/mL],MIC (Escherichia coli [4]) [µg/mL],CHI [5],MIC (Staphylococcus aureus [6]) [µg/mL],MIC (Enterococcus faecium) [µg/mL],MIC (Enterococcus faecalis) [µg/mL],MIC (Pseudomonas aeruginosa [7]) [µg/mL],MIC (Escherichia coli [8]) [µg/mL],MIC (Escherichia coli [9]) [µg/mL],HC50 at 3 h [10] [µg/mL],MIC (Pseudomonas aeruginosa [11]) [µg/mL]
Cl.Cl.Cl.Cl.Cl.Cl.NCCCN(CCCN)CCP(=O)(OCCCCCCCCCCOP(=O)(CCN(CCCN)CCCN)OCCc1ccccc1)OCCc1ccccc1 (configuration not stated),4,1,2,32,31.1,2,128,32,64,64,16,> 500,64
CCCCCCCCOP(=O)(CCN(CCN)CCN)OCCCCCCCCOP(=O)(CCN(CCN)CCN)OCCCCCCCC.Cl.Cl.Cl.Cl.Cl.Cl (configuration not stated),0.2,0.2,3,5,45.2,0.5,2,1,1,1,64,19,1
CCC/C=C\CCOP(=O)(CCN(CCCN)CCCN)OCCCCCCCCOP(=O)(CCN(CCCN)CCCN)OCC/C=C\CCC.Cl.Cl.Cl.Cl.Cl.Cl (configuration not stated),8,2,4,64,32.8,8,> 128,64,128,16,1,> 200,128
CCCCOP(=O)(CCN(CCCN)CCCN)OCCCCCCCCCCOP(=O)(CCN(CCCN)CCCN)OCCCC.Cl.Cl.Cl.Cl.Cl.Cl (configuration not stated),16,4,8,> 128,27.3,16,> 128,128,> 128,> 128,> 128,> 500,> 128
CCCCCCCCOP(=O)(CCN(CCCN)CCCN)OCCCOP(=O)(CCN(CCCN)CCCN)OCCCCCCCC.Cl.Cl.Cl.Cl.Cl.Cl (configuration not stated),2,2,2,4,35.5,2,64,8,16,4,2,> 500,8
Cl.Cl.Cl.Cl.Cl.Cl.NCCCN(CCCN)CCP(=O)(OCCCCCCCOP(=O)(CCN(CCCN)CCCN)OCCCC(F)(F)F)OCCCC(F)(F)F (configuration not stated),> 128,128,> 128,> 128,24.6,> 128,> 128,> 128,> 128,> 128,128,> 200,> 128
CC/C=C\CCCOP(=O)(CCN(CCCN)CCCN)OCCCCCCOP(=O)(CCN(CCCN)CCCN)OCCC/C=C\CC.Cl.Cl.Cl.Cl.Cl.Cl (configuration not stated),16,4,16,128,2.4,8,> 128,128,> 128,64,64,> 200,> 128
CCCCCCCOP(=O)(CCN(CCCN)CCCN)OCCCCOP(=O)(CCN(CCCN)CCCN)OCCCCCCC.Cl.Cl.Cl.Cl.Cl.Cl (configuration not stated),8,2,4,32,30.7,4,> 128,64,128,64,8,> 200,128
CCCCC/C=C\CCOP(=O)(CCN(CCCNC(=N)N)CCCNC(=N)N)OCCCCCOP(=O)(CCN(CCCNC(=N)N)CCCNC(=N)N)OCC/C=C\CCCCC.Cl.Cl.Cl.Cl.Cl.Cl (configuration not stated),1,1,1,1,36.4,1,8,4,8,1,1,121,8
